Experimental data from publication PMC8253220, “Molecular design, synthesis and in vitro biological evaluation of thienopyrimidine–hydroxamic acids as chimeric kinase HDAC inhibitors: a challenging approach to combat cancer” (Journal of Enzyme Inhibition and Medicinal Chemistry, 2021).
Several values for one entry are separate records, joined by “and”; a condition that tells them apart may be missing. Equal values may be shown once.

What was measured:
[1] = system: Hela nuclear extracts; assay: Hela nuclear extract HDAC inhibitor assay (BPS Bioscience); format: biochemical; details: 10 µM
Outline: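 HeLa nuclear extract (20-fold diluted) was incubated with […] HDAC Substrate 3, 5 µg BSA and compound (1% DMSO final) at 37 °C for 60 min, in duplicate. After 15 min with HDAC developer at room temperature, fluorescence was read at 360/460 nm and % activity normalized to no-compound and no-extract controls.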

[2] = system: SK-MEL-5; assay: NCI one-dose screen; format: cell-based, human; details: Melanoma SK-MEL-5, 10 µM single dose
Outline: (§1)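 One concentration (10 μM) applied to each line of the full NCI-60 panel; percent growth compared against untreated cells.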

[3] = system: HCT-15; assay: NCI one-dose screen; format: cell-based, human; details: Colon HCT-15, 10 µM single dose
Outline: as §1

[4] = system: EKVX; assay: NCI one-dose screen; format: cell-based, human; details: NSCLC EKVX, 10 µM single dose
Outline: (§2)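 Single 10 μM dose, NCI-60 panel; read-out = % growth vs untreated controls → % inhibition.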

[5] = system: NCI/ADR-RES; assay: NCI one-dose screen; format: cell-based, human; details: Ovarian NCI/ADR-RES, 10 µM single dose
Outline: as §1

[6] = system: UACC-62; assay: NCI one-dose screen; format: cell-based, human; details: Melanoma UACC-62, 10 µM single dose
Outline: as §1

[7] = system: CCRF-CEM; assay: NCI one-dose screen; format: cell-based, human; details: Leukemia CCRF-CEM, 10 µM single dose
Outline: as §1

[8] = system: M14; assay: NCI one-dose screen; format: cell-based, human; details: Melanoma M14, 10 µM single dose
Outline: as §1

[9] = system: OVCAR-4; assay: NCI one-dose screen; format: cell-based, human; details: Ovarian OVCAR-4, 10 µM single dose
Outline: as §1

[10] = system: 786-0; assay: NCI one-dose screen; format: cell-based, human; details: Renal 786-0, 10 µM single dose
Outline: as §1

[11] = system: TK-10; assay: NCI one-dose screen; format: cell-based, human; details: Renal TK-10, 10 µM single dose
Outline: as §1

[12] = molecular target: EGFR (Homo sapiens, UniProt P00533); assay: In vitro EGFR tyrosine kinase inhibitory assay (Z'-LYTE, SelectScreen); format: biochemical; details: for Mean % inhibition EGFR / inhibition at 10 µM: 10 µM single dose
EGFR, sequence (P00533 25-1210): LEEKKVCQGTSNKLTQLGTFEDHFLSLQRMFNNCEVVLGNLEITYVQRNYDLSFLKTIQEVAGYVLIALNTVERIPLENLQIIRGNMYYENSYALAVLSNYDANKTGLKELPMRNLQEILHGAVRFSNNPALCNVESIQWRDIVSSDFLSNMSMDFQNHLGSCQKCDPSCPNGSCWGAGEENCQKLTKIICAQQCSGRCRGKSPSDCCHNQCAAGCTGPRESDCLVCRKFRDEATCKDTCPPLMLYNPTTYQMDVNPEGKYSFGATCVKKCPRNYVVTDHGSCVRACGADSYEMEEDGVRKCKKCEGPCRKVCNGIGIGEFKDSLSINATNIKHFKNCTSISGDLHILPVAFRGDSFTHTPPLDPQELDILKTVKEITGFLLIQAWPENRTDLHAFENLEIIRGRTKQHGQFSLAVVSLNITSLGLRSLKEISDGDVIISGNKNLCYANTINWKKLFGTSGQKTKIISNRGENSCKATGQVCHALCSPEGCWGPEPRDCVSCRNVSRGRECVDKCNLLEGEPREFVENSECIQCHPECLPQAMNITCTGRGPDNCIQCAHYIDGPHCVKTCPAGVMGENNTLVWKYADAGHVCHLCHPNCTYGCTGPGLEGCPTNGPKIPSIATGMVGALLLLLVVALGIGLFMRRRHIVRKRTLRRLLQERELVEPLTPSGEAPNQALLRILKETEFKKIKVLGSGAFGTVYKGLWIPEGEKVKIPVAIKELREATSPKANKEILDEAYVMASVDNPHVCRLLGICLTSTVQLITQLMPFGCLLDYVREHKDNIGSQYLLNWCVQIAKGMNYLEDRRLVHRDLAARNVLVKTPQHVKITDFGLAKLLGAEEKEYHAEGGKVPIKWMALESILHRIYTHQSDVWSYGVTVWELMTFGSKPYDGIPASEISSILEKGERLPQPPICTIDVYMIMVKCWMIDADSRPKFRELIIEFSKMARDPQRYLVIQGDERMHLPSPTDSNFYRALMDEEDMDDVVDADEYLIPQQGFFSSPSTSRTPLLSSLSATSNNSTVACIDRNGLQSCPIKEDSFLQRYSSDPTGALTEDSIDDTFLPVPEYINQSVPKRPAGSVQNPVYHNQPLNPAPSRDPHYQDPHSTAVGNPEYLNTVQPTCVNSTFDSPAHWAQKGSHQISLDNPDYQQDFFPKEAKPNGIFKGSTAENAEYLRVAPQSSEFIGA
Outline: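 Z'-LYTE fluorescence coupled-enzyme format, read-out based on differential protease cleavage of phosphorylated vs non-phosphorylated peptide. Compounds screened at 10 µM single dose for % inhibition, then selected ones tested at 0.1 nM–10 µM for IC50 by curve fitting.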

[13] = system: full NCI 60 cell panel; assay: NCI one-dose screen, whole panel statistics; format: cell-based, human; details: 1.00E-5 Molar; for Mean Growth Percent: mean over panel
Outline: as §2

SMILES | % Inhibition Hela Nuclear Extracts [1] | Growth Percent [2] | Growth Percent [3] | Growth Percent [4] | Growth Percent [5] | Growth Percent [6] | Growth Percent [7] | Growth Percent [8] | Growth Percent [9] | Growth Percent [10] | Growth Percent [11] | Mean % inhibition EGFR [12] | inhibition at 10 µM [12] | melting point | Delta (one dose mean graph) [13] | Range (one dose mean graph) [13] | Mean Growth Percent [13] | also measured
Cc1c(C(=O)NCCCC(=O)NO)sc2ncnc(Nc3ccc(Cl)cc3)c12 [Compound 20c, 4–(4-chlorophenylamino)-N-(4-(hydroxyamino)-4-oxobutyl)-5-methylthieno[2,3-d]pyrimidine-6-carboxamide] | 3% | 100.0% | 99.0% and 99.06% | 90.5% and 90.52% | 100.5% and 100.58% | 98.8% and 98.83% | 108.0% and 108.09% | 107.6% and 107.62% | 109.4% | 83.0% and 83.06% | 152.2% and 152.23% | 91% | 96% | 212 °C | 23.92% | 73.06% | 103.09% | 
Cc1c(C(=O)NCCCC(=O)NO)sc2ncnc(Nc3ccc(F)c(Cl)c3)c12 [Compound 20d, 4–(3-chloro-4-fluorophenylamino)-N-(4-(hydroxyamino)-4-oxobutyl)-5-methylthieno[2,3-d]pyrimidine-6-carboxamide] | 0% | 100.4% and 100.45% | 99.6% and 99.67% | 94.4% and 94.41% | 104.1% and 104.13% | 93.7% and 93.74% | 107.9% and 107.95% | 102.6% | 104.8% and 104.88% | 104.6% and 104.67% | 124.1% and 124.14% | 96% | 97% | 244 to 246 °C | 26.89% | 47.82% | 103.21% | inhibition at 0.0001 µM ([12]; 0.1 nM compound, 10 μM ATP, read-out: % Inhibition mean, EGFR (ErbB1)): 1%; inhibition at 0.001 µM ([12]; 1 nM compound, 10 μM ATP, read-out: % Inhibition mean, EGFR (ErbB1)): 5%; inhibition at 0.01 µM ([12]; 10 nM compound, 10 μM ATP, read-out: % Inhibition mean, EGFR (ErbB1)): 14%; inhibition at 0.1 µM ([12]; 100 nM compound, 10 μM ATP, read-out: % Inhibition mean, EGFR (ErbB1)): 58%; inhibition at 1 µM ([12]; 1000 nM compound, 10 μM ATP, read-out: % Inhibition mean, EGFR (ErbB1)): 93%; IC50 ([12]; read-out: IC50 in enzyme assays EGFR): 68 nM
